Source: paper PMC7600679, “Benzoxazole-Based Metal Complexes to Reverse Multidrug Resistance in Bacteria” (Antibiotics, 2020)
pIC50: −log10 of the molar value. Where two headings read alike, the source gives them in different places.

Assays:
[1] = tested on: S. aureus 272123 (MRSA); assay: Minimum inhibitory concentration (broth microdilution, CLSI); type: cell-based, Staphylococcus aureus; details: 18 h, visual inspection
Method: (§1) The compounds were further investigated against two Gram-positive strains, S. aureus ATCC 25923 (MSSA), used as the methicillin susceptible reference strain, and the methicillin- and ofloxacin-resistant S. aureus 272123 clinical isolate (MRSA), which was given by Prof. Dr. Leonard Amaral (Institute of Hygiene and Tropical Medicine, Lisbon, Portugal).
(§2) The minimum inhibitory concentrations (MICs) of compounds were determined in 96-well plates based on the Clinical and Laboratory Standard Institute guidelines (CLSI guidelines). The compounds were diluted in 100 μL of MHB. Then, 10^−4 dilution of an overnight bacterial culture in 100 μL of medium were added to each well, with the exception of the medium control wells.

[2] = tested on: MRC-5 human embryonal lung fibroblast cell line; assay: Cytotoxicity assay (MTT); type: cell-based; details: 24 h
Method: The MRC-5 human embryonic lung fibroblast cell line (ATCC CCL-171; provider: LGC Promochem, Teddington, UK) was used in the experiments. The cells were cultivated in Eagle’s Minimal Essential Medium (EMEM; Sigma–Aldrich, St. Louis, MO, USA), supplemented with 1% non-essential amino acid mixture, 10% heat-inactivated fetal bovine serum, 2 mM L-glutamine, 1 mM Na-pyruvate, nystatin, and a penicillin–streptomycin mixture in concentrations of 100 U/L and 10 mg/L, respectively. The supplementary components were obtained from Sigma–Aldrich, St. Louis, MO, USA. The cell culture was kept in a humidified atmosphere (5% CO2, 95% air) at 37 °C.
The activity of increasing concentrations of the compounds on cell growth was determined in 96-well flat-bottomed microtiter plates by two-fold serial dilutions of the benzoxazole derivatives. The adherent human embryonic lung fibroblast cells (10^4/well) was seeded in EMEM medium in 96-well microtiter plates for 4 h prior to the assay. The serial dilutions of the compounds were made in a separate plate, and then pipetted to the plates containing the MRC-5 cell line. Culture plates were incubated at 37 °C for 24 h; at the end of the incubation period, 20 μL of MTT (3-(4,5-dimethylthiazol-2-yl)-2,5-diphenyltetrazolium bromide) solution (from a 5 mg/mL stock solution) was measured to each well. After the incubation at 37 °C for 4 h, 100 μL of sodium dodecyl sulfate (SDS) solution (10% SDS in 0.01 M HCl) was added to each well to dissolve the formazan crystals and the samples were further incubated at 37 °C overnight. Cell growth was calculated by measuring the OD at 540 nm (ref. 630 nm) with a Multiscan EX ELISA reader. The cytotoxicity was expressed as IC50 values, defined as the inhibitory dose that reduces the growth of the cells exposed to the tested compounds by 50%.

[3] = tested on: E. coli AG100; assay: Minimum inhibitory concentration (broth microdilution, CLSI); type: cell-based, Escherichia coli; details: E. coli AG100; 18 h, visual inspection; read-out: MIC
Method: The strains were donated by Prof. Dr. Hiroshi Nikaido (Department of Molecular and Cell Biology and Chemistry, University of California, Berkeley, CA, USA).
as §2

[4] = tested on: Enterobacter cloacae 31298; assay: as above; type: cell-based; details: E. cloacae 31298
Method: (§3) The following bacterial strains were applied in the QS tests: C. violaceum 026 as sensor strain and E. cloacae 31298 isolated from clinical wound (used as N-acyl-homoserine lactone (AHL) producer); this strain induced pigment production by C. violaceum and is a model strain to study QS interactions.
as §2

[5] = tested on: Chromobacterium violaceum 026; assay: as above; type: cell-based; details: C. violaceum 026
Method: as §3, §2

[6] = tested on: S. aureus ATCC 25923; assay: Real-time ethidium bromide accumulation (efflux pump inhibition); type: cell-based, Staphylococcus aureus; details: compounds at ¼ MIC, EB 1 μg/mL, minute 30
Method: (§4) Since multidrug resistance EPs are very important factors contributing to multidrug resistance (MDR) in both Gram-positive and Gram-negative bacteria, the inhibition of these pumps could reverse the resistant phenotype and restore the activity of antibiotics. The effect of compounds on ethidium bromide (EB) accumulation was determined by the automated EB method. This assay was used to determine how much of the fluorescent dye and pump substrate EB was accumulated by the bacterial cells in the presence of the tested compounds. The real-time accumulation of EB was monitored for 30 min in both S. aureus and E. coli strains.
(§5) The accumulation of the efflux pump substrate EB was monitored by the automated EB method using a LightCycler real-time thermocycler (LightCycler 1.5, Roche, Indianapolis, IN, USA). An aliquot of an overnight culture of the S. aureus strains in TSB medium was inoculated into fresh TSB medium, and it was incubated until it reached an optical density (OD) of 0.6 at 600 nm. In the case of E. coli strains, the medium applied in the assay was LB broth; the preparation of the inoculum was similar to the one of S. aureus. The cells were washed with phosphate buffered saline (PBS; pH 7.4) and centrifuged at 13,000 × g for 3 min, the pellets were re-suspended in PBS (pH 7.4), and the OD was calibrated to 0.6 at 600 nm. The compounds were measured at ¼ MIC concentration (in double-concentrated form) to the EB solution in PBS. The final concentration of EB was determined according to the MIC and the fluorescent signal produced by this amount of EB. In the case of all strains, the concentration of EB was 1 μg/mL. Then, 10 μL of the EB solution plus the compound were pipetted into standard glass capillary tubes of 20 µL maximum volume (Roche, Indianapolis, USA), and 10 μL of bacterial culture (OD of 0.6 at 600 nm) were transferred to the capillaries. The capillaries containing the samples were placed into the carousel, and the fluorescence was monitored at the FL-2 channel in every minute on a real-time basis.
(§6) Based on the data obtained, the relative fluorescence index (RFI) of the last time point (minute 30) was determined as follows:RFI = (RFtreated − RFuntreated)/RFuntreated(1) where RFtreated is the relative fluorescence (RF) at the last time point of the EB retention curve in the presence of an inhibitor, and RFuntreated is the relative fluorescence at the last time point of the EB retention curve of the untreated control having the solvent control (DMSO).

[7] = tested on: S. aureus 272123 (MRSA); assay: as above; type: cell-based, Staphylococcus aureus; details: compounds at ¼ MIC (3 at 12.5 µM), VER at 25 µM, EB 1 μg/mL, minute 30
Method: as §4, §5, §6

[8] = tested on: E. coli AG100 A; assay: as above; type: cell-based, Escherichia coli; details: compounds at ¼ MIC, EB 1 μg/mL, minute 30
Method: as §4, §5, §6

[9] = tested on: C. violaceum 026 sensor strain with AHL producer E. cloacae 31298; assay: Quorum sensing inhibition (agar diffusion, violacein production); type: cell-based, Chromobacterium violaceum; details: disc with 10 μL of 1 mM stock; reduction of violacein zone
Method: as §3
LB* was applied for these experiments. The sensor strain C. violaceum 026 and the AHL producer strains E. cloacae 31298 were inoculated as parallel lines and incubated at room temperature for 24–48 h. The inhibition of bacterial communication was determined by the agar diffusion method. Filter paper discs (7.0 mm in diameter) were impregnated with 10 μL of stock solutions (1 mM) of the compounds in DMSO. The discs were placed between the parallel lines of the sensor and the AHL producer strains. The plates were kept at room temperature for another 24–48 h, and the interactions between the strains and compounds were determined as the reduction in the size of the zone of purple pigment (violacein) production in millimeters. PMZ was applied as a positive control.

[10] = tested on: E. coli AG100; assay: Real-time ethidium bromide accumulation (efflux pump inhibition, AcrAB-TolC); type: cell-based, Escherichia coli; details: compounds at ¼ MIC, EB 1 μg/mL, minute 30
Method: as §4, §5, §6

[11] = tested on: E. coli AG100 A; assay: Minimum inhibitory concentration (broth microdilution, CLSI); type: cell-based, Escherichia coli; details: E. coli AG100 A (AcrAB-TolC deleted); 18 h, visual inspection
Method: Wild-type E. coli K-12 AG100 strain (argE3 thi-1 rpsL xyl mtl Δ(gal-uvrB) supE44) expressing the AcrAB TolC EP at its basal level and its AcrAB-TolC deleted mutant E. coli K-12 AG100 A strain. The strains were donated by Prof. Dr. Hiroshi Nikaido (Department of Molecular and Cell Biology and Chemistry, University of California, Berkeley, CA, USA).
as §2

[12] = tested on: Staphylococcus aureus ATCC 25923; assay: as above; type: cell-based; details: S. aureus ATCC 25923; 18 h, visual inspection
Method: as §1, §2

[13] = tested on: E. coli AG100; assay: Resistance modulation (MIC reduction) assay with CIP and TET; type: cell-based, Escherichia coli; details: compound at ¼ MIC
Method: (§7) The resistance modulation effects of compounds with ciprofloxacin (CIP) and tetracycline (TET) antibiotics were evaluated by the MIC reduction method on the Gram-negative E. coli AG100, AG100 A, and the Gram-positive S. aureus ATCC and MRSA strains.
(§8) The chemosensitizing activity of benzoxazole-type ligands and their metal complexes was determined based on the MIC values of the antibiotics in the presence of sub-inhibitory concentrations of the compounds (¼ MIC) in both Gram-negative and Gram-positive strains. The MICs were determined in strains by the two-fold broth microdilution method in 96-well plates, using serial dilutions of TET and CIP. The first four rows contained two-fold dilutions of antibiotics, and combinations of the TET and CIP and tested compounds were transferred into the last four rows. The 10^−4 dilution of an overnight bacterial culture in 50 μL of MHB was then measured to each well, except for the medium control wells. The plates were kept at 37 °C for 18 h. MIC values of antibiotics and their combination with tested compounds were detected by visual inspection.

[14] = tested on: S. aureus MRSA 272123; assay: as above; type: cell-based, Staphylococcus aureus
Method: as §7, §8

[15] = tested on: MDR mouse T-cell lymphoma cells; design: method as in PMID 30396935; details: preliminary results; cited from earlier work
[16] = tested on: MRC-5 human embryonal lung fibroblast cell line; design: method as in earlier work; details: cited from earlier work

Question: Which MIC [1] does the source give for `[O-]C(=Cc1nc2ccccc2o1)C(F)(F)F.[O-]C(=Cc1nc2ccccc2o1)C(F)(F)F.[Zn+2]` [Compound 4] here?
Answer: 6.25 µM

Question: And the “Cytotoxic effect (class in words)” value [2]?
Answer: strong (IC50: 0–30)

Question: What about the pIC50 [2] of the same molecule?
Answer: 4.76

Question: And the MIC [3]?
Answer: 25 µM

Question: And the MIC [4]?
Answer: >100 µM

Question: What about the MIC [5] of the same molecule?
Answer: >100 µM

Question: What about the “Relative fluorescence index (RFI)” value [6] of the same molecule?
Answer: −0.03

Question: What about the “Relative fluorescence index (RFI)” value [7] of the same molecule?
Answer: −0.11

Question: And the “Relative fluorescence index (RFI)” value [8]?
Answer: −0.17

Question: What about the “Inhibition zone (quorum sensing)” value [9] of the same molecule?
Answer: 47 mm

Question: And the “Relative fluorescence index (RFI)” value [10]?
Answer: −0.10

Question: What about the MIC [11] of the same molecule?
Answer: 25 µM

Question: What about the MIC [12] of the same molecule?
Answer: 12.5 µM

Question: Which MIC [1] does the source give for `O.O.[Ni+2].[O-]C(=Cc1nc2ccccc2o1)C(F)(F)F.[O-]C(=Cc1nc2ccccc2o1)C(F)(F)F` [Compound 8] here?
Answer: 6.25 µM

Question: And the “Cytotoxic effect (class in words)” value [2]?
Answer: strong (IC50: 0–30)

Question: And the pIC50 [2]?
Answer: 4.91

Question: And the MIC [3]?
Answer: 50 µM

Question: And the “Reduction of the MIC of CIP” value [13]?
Answer: 2 fold

Question: And the “CIP MIC in combination with compounds” value ([13]; value is the MIC of ciprofloxacin)?
Answer: 0.008 µM

Question: What about the MIC [4] of the same molecule?
Answer: >100 µM

Question: What about the MIC [5] of the same molecule?
Answer: >100 µM

Question: What about the “Reduction of the MIC value of CIP” value ([14]; compound at a quarter of the MIC) of the same molecule?
Answer: 2 fold

Question: And the “CIP MIC in combination with compounds” value ([14]; compound at ¼ MIC, value is the MIC of ciprofloxacin)?
Answer: 6.25 µM

Question: And the “Relative fluorescence index (RFI)” value [6]?
Answer: −0.20

Question: And the “Relative fluorescence index (RFI)” value [7]?
Answer: −0.01

Question: What about the “Relative fluorescence index (RFI)” value [8] of the same molecule?
Answer: −0.15

Question: What about the “Relative fluorescence index (RFI)” value [10] of the same molecule?
Answer: 0.11

Question: And the MIC [11]?
Answer: 25 µM

Question: What about the MIC [12] of the same molecule?
Answer: 25 µM

Question: With `[Ag+].[Ag+].[O-]C(=Cc1nc2ccccc2o1)C(F)(F)F.[O-]C(=Cc1nc2ccccc2o1)C(F)(F)F` [Compound 11] as the molecule, how does the MIC [1] read?
Answer: 12.5 µM

Question: And the pIC50 [2]?
Answer: 4.18

Question: What about the MIC [3] of the same molecule?
Answer: 25 µM

Question: And the MIC [4]?
Answer: >100 µM

Question: What about the MIC [5] of the same molecule?
Answer: >100 µM

Question: What about the “Relative fluorescence index (RFI)” value [6] of the same molecule?
Answer: 0.11

Question: What about the “Relative fluorescence index (RFI)” value [7] of the same molecule?
Answer: −0.11

Question: What about the “Relative fluorescence index (RFI)” value [8] of the same molecule?
Answer: 0.12

Question: And the “Inhibition zone (quorum sensing)” value [9]?
Answer: 53 mm

Question: And the “Relative fluorescence index (RFI)” value [10]?
Answer: 0.37

Question: And the MIC [11]?
Answer: 50 µM

Question: And the MIC [12]?
Answer: 25 µM

Question: For `CC(CN1c2ccccc2Sc2ccccc21)N(C)C` (centres unmarked) [PMZ, promethazine, reference compound], which “Inhibition zone (quorum sensing)” value [9] is on record?
Answer: 16 mm

Question: Which results are given for `N.N.[Cl][Pt][Cl]` [cisplatin]?
Answer: pIC50 [15]: 4.95; pIC50 [16]: 4.48
